# Test results published in article PMC5399447, “Neuroprotective pentapeptide CN-105 is associated with reduced sterile inflammation and improved functional outcomes in a traumatic brain injury murine model” (Scientific Reports, 2017).
# System: 84 genes related to inflammatory and autoimmune processes
# Experiment: Mouse Inflammatory Response and Autoimmunity PCR Array, whole brain
# Format: in vivo
# Experimental: Frozen, pulverized whole brain tissue was processed for RNA extraction from a separate cohort of treated and untreated injured animals on days 1 post-injury(CN-105, n = 4; vehicle, n = 3; Control(sham-operated), n = 3). Total RNA was extracted from frozen, pulverized whole brain tissue using RNeasy Lipid Tissue Mini Kit(Qiagen, Valencia, CA). RNA quantity and quality was assessed with the NanoDrop ND-1000 spectrophotometer(NanoDrop Technologies, Inc., Wilmington, DE) and by agarose gel electrophoresis. Only samples with a 260/280 ratio between 1.9–2.1, and a 260/230 ratio greater than 2.0, were further processed. First strand complementary DNA(cDNA) was generated from 2 μg total RNA using the RT[2] First strand kit(SABiosciences, Frederick, MD.)
# Gene expression was measured using the Mouse Inflammatory Response and Autoimmunity PCR Array(SABiosciences, Frederick, MD), which profiles the expression of 84 genes related to inflammatory and autoimmune processes. RT-PCR was performed according to manufacturer’s instructions Quality of the cDNA and PCR efficiency was verified by housekeeping genes and RT-PCR controls included in the PCR Array.
# Raw RT-PCR data were analyzed using the Web-Based PCR Array Data Analysis software(SABiosciences). ΔCt values and ΔΔCt - based fold-change were calculated from raw threshold cycle data, using beta-actin and glyceraldehyde 3-phosphate dehydrogenase(GAPDH) as internal standards for normalization. Fold changes were then normalized against sham-operated controls.
# [1] = TBI CN-105 vs TBI vehicle, brain 24 h post TBI
# [2] = TBI CN-105 vs sham vehicle, brain 24 h
substance,measurement,setting,value
Ac-VSRRR-amide [CN-105],Ccl24 Fold Change,[1],−14.8
same,Ccl25 Fold Change,[1],−1.2
same,Ccr1 Fold Change,[1],2.3
same,Ccr2 Fold Change,[1],−48.3
same,Ccr3 Fold Change,[1],5.4
same,Ccr4 Fold Change,[1],1.2
same,Ccr7 Fold Change,[1],1.2
same,Cd40 Fold Change,[1],−7.8
same,Cd40lg Fold Change,[1],−1.2
same,Cebpb Fold Change,[1],−1.5
same,Crp Fold Change,[1],1.2
same,Csf1 Fold Change,[1],−2.0
same,Cxcl1 Fold Change,[1],−8.3
same,Cxcl2 Fold Change,[1],4.8
same,Cxcl3 Fold Change,[1],2.4
same,Cxcl5 Fold Change,[1],6257
same,Cxcl9 Fold Change,[1],−70.3
same,Cxcl10 Fold Change,[1],−47.9
same,Cxcl11 Fold Change,[1],2.6
same,Cxcr4 Fold Change,[1],−7.3
same,Fasl Fold Change,[1],−2.0
same,Flt3l Fold Change,[1],−1.4
same,Fos Fold Change,[1],−1.2
same,Hdac4 Fold Change,[1],−1.1
same,Ifng Fold Change,[1],−12.9
same,Il1a Fold Change,[1],−10.1
same,Il1b Fold Change,[1],−1.6
same,Il1f10 Fold Change,[1],3.8
same,Il1r1 Fold Change,[1],3.5
same,Il1rap Fold Change,[1],−2.2
same,Il1rn Fold Change,[1],−1.6
same,Il6 Fold Change,[1],−29.8
same,Il6ra Fold Change,[1],−2.9
same,Il7 Fold Change,[1],515
same,Il8ra Fold Change,[1],1.2
same,Il8rb Fold Change,[1],1.1
same,Il9 Fold Change,[1],1.2
same,Il10 Fold Change,[1],−9.3
same,Il10rb Fold Change,[1],2.6
same,Il18 Fold Change,[1],7.2
same,Il18rap Fold Change,[1],−3.6
same,Il22 Fold Change,[1],−1.7
same,Il22ra2 Fold Change,[1],10895
same,Il23a Fold Change,[1],18.5
same,Il23r Fold Change,[1],5.8
same,Itgb2 Fold Change,[1],−1.5
same,Kng1 Fold Change,[1],−1.1
same,Lta Fold Change,[1],−1.2
same,Ltb Fold Change,[1],3.6
same,Ly96 Fold Change,[1],61.2
same,Myd88 Fold Change,[1],−273
same,Nfatc3 Fold Change,[1],10044
same,Nfkb1 Fold Change,[1],−16.6
same,Nr3c1 Fold Change,[1],13.7
same,Ripk2 Fold Change,[1],−1.1
same,Tirap Fold Change,[1],−1.5
same,Tlr1 Fold Change,[1],−1.4
same,Tlr2 Fold Change,[1],1.0
same,Tlr3 Fold Change,[1],1.3
same,Tlr4 Fold Change,[1],−9.0
same,Tlr5 Fold Change,[1],2.5
same,Tlr6 Fold Change,[1],−170
same,Tlr7 Fold Change,[1],19.0
same,Tnf Fold Change,[1],6.9
same,Tnfsf14 Fold Change,[1],−2.8
same,Tollip Fold Change,[1],−2.9
same,Bcl6 fold change TBI-CN-105/S-v,[2],11.2
same,C3ar1 fold change TBI-CN-105/S-v,[2],34.9
same,C3 fold change TBI-CN-105/S-v,[2],4.6
same,C4b fold change TBI-CN-105/S-v,[2],163.3
same,Ccl2 fold change TBI-CN-105/S-v,[2],42.3
same,Ccl3 fold change TBI-CN-105/S-v,[2],17.7
same,Ccl4 fold change TBI-CN-105/S-v,[2],32.3
same,Ccl5 fold change TBI-CN-105/S-v,[2],3.8
same,Ccl7 fold change TBI-CN-105/S-v,[2],2.9
same,Ccl8 fold change TBI-CN-105/S-v,[2],5.6
same,Ccl11 fold change TBI-CN-105/S-v,[2],2253.1
same,Ccl12 fold change TBI-CN-105/S-v,[2],3.7
same,Ccl17 fold change TBI-CN-105/S-v,[2],−2.6
same,Ccl19 fold change TBI-CN-105/S-v,[2],−5.8
same,Ccl20 fold change TBI-CN-105/S-v,[2],3086.8
same,Ccl22 fold change TBI-CN-105/S-v,[2],176.2
same,Ccl24 fold change TBI-CN-105/S-v,[2],159.1
same,Ccl25 fold change TBI-CN-105/S-v,[2],16.9
same,Ccr1 fold change TBI-CN-105/S-v,[2],−2.5
same,Ccr2 fold change TBI-CN-105/S-v,[2],5.6
same,Ccr3 fold change TBI-CN-105/S-v,[2],66.6
same,Ccr4 fold change TBI-CN-105/S-v,[2],7945.9
same,Ccr7 fold change TBI-CN-105/S-v,[2],283.2
same,Cd40 fold change TBI-CN-105/S-v,[2],38.8
same,Cebpb fold change TBI-CN-105/S-v,[2],3.5
same,Csf1 fold change TBI-CN-105/S-v,[2],1.1
same,Cxcl1 fold change TBI-CN-105/S-v,[2],29.4
same,Cxcl2 fold change TBI-CN-105/S-v,[2],25.5
same,Cxcl3 fold change TBI-CN-105/S-v,[2],54032.0
same,Cxcl5 fold change TBI-CN-105/S-v,[2],957.4
same,Cxcl9 fold change TBI-CN-105/S-v,[2],32.2
same,Cxcl10 fold change TBI-CN-105/S-v,[2],−1.7
same,Cxcl11 fold change TBI-CN-105/S-v,[2],372.3
same,Cxcr4 fold change TBI-CN-105/S-v,[2],21.0
same,Fasl fold change TBI-CN-105/S-v,[2],3.2
same,Flt3l fold change TBI-CN-105/S-v,[2],−2.8
